Active and inactive are the calls of the source. No cut-off for these calls is given here.
Columns and labels:
Cannabinoid receptor 1 [1] = target: T1, Cannabinoid receptor 1 (Homo sapiens, UniProt P21554); experiment: Displacement of [3H]-CP55940 from human recombinant cannabinoid CB1 receptor expressed in HEK cell membranes incubated for 1.5 hrs by liquid scintillation counting method; parameters: species or system Cell membrane
Cannabinoid receptor 2 [2] = target: T2, Cannabinoid receptor 2 (Homo sapiens, UniProt P34972); experiment: Displacement of [3H]-CP55940 from human recombinant cannabinoid CB2 receptor expressed in HEK cell membranes incubated for 1.5 hrs by liquid scintillation counting method; parameters: species or system Cell membrane
Homo sapiens = organism: Homo sapiens; experiment: Selectivity ratio of Ki for displacement of [3H]-CP55940 from human recombinant cannabinoid CB1 receptor expressed in HEK cell membranes to displacement of [3H]-CP55940 from human recombinant cannabinoid CB2 receptor expressed in HEK cell membranes
Cannabinoid receptor 1 [3] = target: T1, Cannabinoid receptor 1; experiment: Inverse agonist activity at human recombinant cannabinoid CB1 receptor expressed in HEK cells transfected with CNG assessed as increase in cAMP level measured up to 1 hr by ACTOne membrane potential dye based assay; assay type: functional, cell-based; conditions: time hrs <=1
Cannabinoid receptor 1 [4] = target: T1, Cannabinoid receptor 1; experiment: Inverse agonist activity at human recombinant cannabinoid CB1 receptor expressed in HEK cells transfected with CNG assessed as increase in cAMP level measured up to 1 hr by ACTOne membrane potential dye based assay relative to control; assay type: functional, cell-based; conditions: time hrs <=1
Cannabinoid receptor 2 [5] = target: T2, Cannabinoid receptor 2; experiment: Inverse agonist activity at human recombinant cannabinoid CB2 receptor expressed in HEK cells transfected with CNG assessed as increase in cAMP level measured up to 1 hr by ACTOne membrane potential dye based assay; assay type: functional, cell-based
Cannabinoid receptor 2 [6] = target: T2, Cannabinoid receptor 2; experiment: Inverse agonist activity at human recombinant cannabinoid CB2 receptor expressed in HEK cells transfected with CNG assessed as increase in cAMP level measured up to 1 hr by ACTOne membrane potential dye based assay relative to control; assay type: functional, cell-based; conditions: time hrs <=1
Cannabinoid receptor 1 [7] = target: T1, Cannabinoid receptor 1; experiment: Inverse agonist activity at cannabinoid CB1 receptor in human U2OS cells assessed as induction of beta-arrestin recruitment using CCF4/AM as substrate preincubated for 5 hrs followed by substrate addition and measured after 2 hrs by Tango assay; assay type: cell-based; conditions: time 7.0 hrs
Cannabinoid receptor 1 [8] = target: T1, Cannabinoid receptor 1; experiment: Inverse agonist activity at cannabinoid CB1 receptor in human U2OS cells assessed as emission ratio using CCF4/AM as substrate preincubated for 5 hrs followed by substrate addition and measured after 2 hrs by Tango assay; assay type: cell-based; conditions: time 7.0 hrs
Cannabinoid receptor 2 [9] = target: T2, Cannabinoid receptor 2; experiment: Inverse agonist activity at cannabinoid CB2 receptor in human U2OS cells assessed as induction of beta-arrestin recruitment using CCF4/AM as substrate preincubated for 5 hrs followed by substrate addition and measured after 2 hrs by Tango assay; assay type: cell-based
Cannabinoid receptor 2 [10] = target: T2, Cannabinoid receptor 2; experiment: Inverse agonist activity at cannabinoid CB2 receptor in human U2OS cells assessed as emission ratio using CCF4/AM as substrate preincubated for 5 hrs followed by substrate addition and measured after 2 hrs by Tango assay; assay type: cell-based; conditions: time 7.0 hrs
C8-B4 [11] = experiment: Effect on LPS-stimulated microglia polarization in mouse C8-B4 cells assessed as decrease in CD16/32 expression at 20 uM after 24 hrs by cell polarization assay; assay type: functional, cell-based
C8-B4 [12] = experiment: Effect on LPS-stimulated microglia polarization in mouse C8-B4 cells assessed as decrease in CD68 expression at 20 uM after 24 hrs by cell polarization assay; assay type: functional, cell-based
C8-B4 [13] = experiment: Effect on LPS-stimulated microglia polarization in mouse C8-B4 cells assessed as increase in CD204 expression at 20 uM after 24 hrs by cell polarization assay; assay type: functional, cell-based
C8-B4 [14] = experiment: Effect on LPS-stimulated microglia polarization in mouse C8-B4 cells assessed as increase in CD206 expression at 20 uM after 24 hrs by cell polarization assay; assay type: functional, cell-based
IMhu [15] = experiment: Effect on LPS-stimulated microglia polarization in human IMhu cells assessed as decrease in CD16 expression at 35 uM after 24 hrs by cell polarization assay; assay type: functional, cell-based
IMhu [16] = experiment: Effect on LPS-stimulated microglia polarization in human IMhu cells assessed as decrease in CD68 expression at 35 uM after 24 hrs by cell polarization assay; assay type: functional, cell-based
IMhu [17] = experiment: Effect on LPS-stimulated microglia polarization in human IMhu cells assessed as increase in CD204 expression at 35 uM after 24 hrs by cell polarization assay; assay type: functional, cell-based
IMhu [18] = experiment: Effect on LPS-stimulated microglia polarization in human IMhu cells assessed as increase in CD206 expression at 35 uM after 24 hrs by cell polarization assay; assay type: functional, cell-based
IMhu [19] = experiment: Inhibition of cell migration in LPS-induced human IMhu cells at 10 uM after 24 hrs by scratch assay; assay type: functional
IMhu [20] = experiment: Induction of morphological changes in LPS-induced human IMhu cells assessed as ramified cell at 10 uM after 24 hrs by DAPI/Phalloidin staining based fluorescence microscopic analysis; assay type: functional
IMhu [21] = experiment: Induction of morphological changes in LPS-induced human IMhu cells assessed as small cell body at 10 uM after 24 hrs by DAPI/Phalloidin staining based fluorescence microscopic analysis; assay type: functional
IMhu [22] = experiment: Induction of morphological changes in LPS-induced human IMhu cells assessed as elongated projection formation at 10 uM after 24 hrs by DAPI/Phalloidin staining based fluorescence microscopic analysis; assay type: functional
IMhu [23] = experiment: Cytoprotective activity in human IMhu cells assessed as reduction in LPS-induced ROS generation at 10 uM after 50 to 1440 mins by fluorescence based assay; assay type: functional, cell-based; conditions: time 50-1440 min

T2 sequence (P34972 whole entry): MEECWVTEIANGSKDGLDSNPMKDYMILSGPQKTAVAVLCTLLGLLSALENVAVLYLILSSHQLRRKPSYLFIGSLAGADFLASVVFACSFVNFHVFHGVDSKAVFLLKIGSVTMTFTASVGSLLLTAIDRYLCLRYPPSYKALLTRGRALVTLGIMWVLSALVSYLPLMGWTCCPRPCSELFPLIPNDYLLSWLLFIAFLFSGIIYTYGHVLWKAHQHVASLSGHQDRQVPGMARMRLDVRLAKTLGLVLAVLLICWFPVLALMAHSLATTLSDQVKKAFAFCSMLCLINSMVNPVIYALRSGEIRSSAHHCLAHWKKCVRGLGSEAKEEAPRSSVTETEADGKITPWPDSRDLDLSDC
T1 sequence (P21554 whole entry): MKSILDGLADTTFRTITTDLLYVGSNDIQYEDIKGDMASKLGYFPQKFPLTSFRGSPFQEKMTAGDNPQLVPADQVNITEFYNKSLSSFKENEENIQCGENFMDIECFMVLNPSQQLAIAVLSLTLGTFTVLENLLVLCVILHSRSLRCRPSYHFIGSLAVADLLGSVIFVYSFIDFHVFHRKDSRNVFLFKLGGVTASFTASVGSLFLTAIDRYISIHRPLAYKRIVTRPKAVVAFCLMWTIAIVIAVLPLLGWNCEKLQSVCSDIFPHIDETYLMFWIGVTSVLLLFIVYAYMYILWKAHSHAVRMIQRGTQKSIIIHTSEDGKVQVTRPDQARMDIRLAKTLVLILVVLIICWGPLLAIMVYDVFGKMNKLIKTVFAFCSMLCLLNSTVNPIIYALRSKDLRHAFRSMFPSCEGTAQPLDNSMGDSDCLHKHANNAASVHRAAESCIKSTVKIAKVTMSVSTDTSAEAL

Row | SMILES | Ki (Cannabinoid receptor 1 [1]) [nM] | Ki (Cannabinoid receptor 2 [2]) [nM] | Ratio Ki (Homo sapiens) | pEC50 (Cannabinoid receptor 1 [3]) | Emax (Cannabinoid receptor 1 [4]) | EC50 (Cannabinoid receptor 2 [5]) [nM] | Emax (Cannabinoid receptor 2 [6]) | pEC50 (Cannabinoid receptor 1 [7]) | Ratio (Cannabinoid receptor 1 [8]) | EC50 (Cannabinoid receptor 2 [9]) [nM] | Ratio (Cannabinoid receptor 2 [10]; filed as inverse agonist) | Emax (Cannabinoid receptor 2 [6]; filed as inverse agonist) [%] | pEC50 (Cannabinoid receptor 2 [5]; time hrs <=1) | further results
1 | O=C(c1ccccc1)c1cc(O)c(-c2cc(C(F)(F)F)cc(C(F)(F)F)c2)c(O)c1 | 1900 | 215 | 8.86 | inactive | inactive | 372 | 22.9% | inactive | inactive | 1410 | 0.91 |  |  | 
2 | O=C(c1ccccc1)c1cc(O)c(-c2ccoc2)c(O)c1 | > 10000 | 1330 | > 7.53 | inactive | inactive | 2750 | -18.5% |  |  |  |  |  |  | 
3 | Cc1cccc(-c2c(O)cc(C(=O)c3cccs3)cc2O)c1 | 9530 | 975 | 9.77 | inactive | inactive | 200 |  | inactive | inactive | 6170 | 2.68 | 51.7 |  | 
4 | O=C(c1ccccc1)c1cc(O)c(-c2ccsc2)c(O)c1 | > 10000 | > 10000 |  | inactive | inactive |  | inactive |  |  |  |  |  | inactive | 
5 | O=C(c1ccccc1)c1cc(O)c(-c2ccncc2)c(O)c1 | > 10000 | > 10000 |  | inactive | inactive |  | inactive |  |  |  |  |  | inactive | 
6 | O=C(c1ccccc1)c1cc(O)c(-c2cc(F)cc(F)c2)c(O)c1 | 1080 | 1630 | 0.66 | inactive | inactive | 1700 |  | inactive | inactive | 8910 | 2.22 | 63 |  | 
7 | O=C(c1ccccc1)c1cc(O)c(-c2cccc(CO)c2)c(O)c1 | > 10000 | 2490 | > 4 | inactive | inactive |  | inactive |  |  |  |  |  | inactive | 
8 | O=C(c1cc(O)c(-c2cc(Cl)ccc2Cl)c(O)c1)c1cccs1 | > 10000 | 447 | > 22.4 | inactive | inactive | 141 |  | inactive | inactive | > 10000 | 1.46 | 61 |  | 
9 | O=C(c1cc(O)c(-c2cccc(CO)c2)c(O)c1)c1cccs1 | > 10000 | 8380 | > 1.19 | inactive | inactive |  | inactive |  |  |  |  |  | inactive | 
10 | O=C(c1cc(O)c(-c2cccc(C(F)(F)F)c2)c(O)c1)c1cccs1 | > 10000 | 154 | > 64.9 | inactive | inactive | 38.9 |  | inactive | inactive | 8510 | 1.19 | 57.2 |  | Activity (C8-B4 [11]): Active; Activity (C8-B4 [12]): Active; Activity (C8-B4 [13]): Active; Activity (C8-B4 [14]): Active; Activity (IMhu [15]): Active; Activity (IMhu [16]): Active; Activity (IMhu [17]): Active; Activity (IMhu [18]): Active; inhibition (IMhu [19]): Active; Activity (IMhu [20]): Active; Activity (IMhu [21]): Active; Activity (IMhu [22]): Active; Activity (IMhu [23]): Active
11 | O=C(c1ccccc1)c1cc(O)c(-c2ccc3c(c2)OCCO3)c(O)c1 | > 10000 | 4740 | > 2.11 | inactive | inactive | 4900 |  |  |  |  |  | 49 |  | 
12 | Cc1ccc(Cn2nc(C(=O)N[C@@H]3C(C)(C)[C@@H]4CC[C@@]3(C)C4)cc2-c2ccc(Cl)c(C)c2)cc1 |  |  |  |  |  |  |  | inactive |  |  |  |  |  | 
13 | O=C(c1cc(O)c(-c2cc(C(F)(F)F)cc(C(F)(F)F)c2)c(O)c1)c1cccs1 | 3740 | 187 | 20 | inactive | inactive | 676 |  | inactive | inactive | 1290 | 0.94 | 49.7 |  | 
14 | O=C(c1ccccc1)c1cc(O)c(-c2cccc(C(F)(F)F)c2)c(O)c1 | > 10000 | 204 | > 49 | inactive | inactive | 240 |  | inactive | inactive | 3470 | 1.41 | 66 |  | 
15 | O=C(c1ccccc1)c1cc(O)c(-c2ccc3c(c2)OCO3)c(O)c1 | > 10000 | > 10000 |  | inactive | inactive |  | inactive |  |  |  |  |  |  | Emax (Cannabinoid receptor 2 [5]; time hrs <=1): inactive
16 | O=C(c1ccccc1)c1cc(O)c(-c2ccnc(Cl)c2)c(O)c1 | > 10000 | > 10000 |  | inactive | inactive |  | inactive |  |  |  |  |  | inactive | 
17 | O=C(c1ccccc1)c1cc(O)c(-c2cc(Cl)ccc2Cl)c(O)c1 | > 10000 | 233 | > 42.9 | inactive | inactive | 363 |  | inactive | inactive | 6030 | 1.03 | 66.5 |  | 
18 | O=C(c1ccccc1)c1cc(O)c(-c2ccnc(F)c2)c(O)c1 | > 10000 | > 10000 |  | inactive | inactive |  | inactive |  |  |  |  |  | inactive | 
19 | N#Cc1cc(-c2c(O)cc(C(=O)c3ccccc3)cc2O)ccc1F | > 10000 | 1840 | > 5.44 | inactive | inactive | 2820 |  | inactive | inactive |  |  | 52.3 |  | pEC50 (Cannabinoid receptor 2 [9]; time 7.0 hrs): inactive; Ratio (Cannabinoid receptor 2 [10]): inactive
20 | O=C(c1ccccc1)c1cc(O)c(-c2cc(Cl)cc(Cl)c2)c(O)c1 |  |  | 39.4 | inactive | inactive |  |  | inactive | inactive |  | 0.66 | 54.8 |  | 
21 | O=C(c1cc(O)c(-c2ccncc2)c(O)c1)c1cccs1 | > 10000 | > 10000 |  | inactive | inactive |  | inactive |  |  |  |  |  | inactive | 
22 | Cc1cccc(-c2c(O)cc(C(=O)c3ccccc3)cc2O)c1 | 4010 | 320 | 12.6 | inactive | inactive | 1660 |  | inactive | inactive | > 10000 | 2.3 | 40.3 |  | 

Reference: ChEMBL document CHEMBL4715916, “Synthesis and biological evaluation of a ring analogs of the selective CB2 inverse agonist SMM-189” (Bioorg Med Chem, 2021)
